Measurements published in patent publication US20120220581A1, “IMIDAZO[1,2-b]PYRIDAZINE DERIVATIVES AND THEIR USE AS PDE10 INHIBITORS” (Janssen-Cilag, S.A., priority 2009, published 2012).
Like-named read-outs stand apart in the source and are kept apart here.

Experiments:
[1] = target: T1, Rat recombinant PDE10A (rPDE10A2) (Rattus norvegicus, UniProt Q9QYJ6); experiment: In vitro assay PDE10A (SPA, 3H-cAMP); format: biochemical
T1 construct: inferred from the Ni metal chelate purification; made in house; host or cells: Sf9 insect cells (baculovirus)
T1 sequence (Q9QYJ6 1-794): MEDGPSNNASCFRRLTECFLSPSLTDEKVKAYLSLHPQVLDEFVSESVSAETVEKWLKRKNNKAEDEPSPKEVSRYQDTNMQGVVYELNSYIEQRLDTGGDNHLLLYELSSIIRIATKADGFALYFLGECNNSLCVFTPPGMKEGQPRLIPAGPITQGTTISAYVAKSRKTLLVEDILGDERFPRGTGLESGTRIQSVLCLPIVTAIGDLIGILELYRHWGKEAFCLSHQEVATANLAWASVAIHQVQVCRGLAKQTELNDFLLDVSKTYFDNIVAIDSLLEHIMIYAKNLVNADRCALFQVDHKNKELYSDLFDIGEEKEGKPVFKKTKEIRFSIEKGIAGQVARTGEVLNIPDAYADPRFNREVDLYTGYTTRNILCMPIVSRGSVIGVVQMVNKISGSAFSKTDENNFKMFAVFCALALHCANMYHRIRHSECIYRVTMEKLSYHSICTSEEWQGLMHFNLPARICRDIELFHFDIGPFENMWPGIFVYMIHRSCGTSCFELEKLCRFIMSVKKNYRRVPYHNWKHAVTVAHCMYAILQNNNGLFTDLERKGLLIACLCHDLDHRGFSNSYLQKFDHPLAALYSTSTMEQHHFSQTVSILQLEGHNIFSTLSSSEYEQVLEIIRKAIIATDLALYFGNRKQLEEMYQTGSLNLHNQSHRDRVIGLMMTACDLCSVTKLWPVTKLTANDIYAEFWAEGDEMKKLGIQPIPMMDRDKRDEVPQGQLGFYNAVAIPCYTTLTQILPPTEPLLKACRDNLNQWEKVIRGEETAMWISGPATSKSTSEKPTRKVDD
In short: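 Rat PDE10A2 expressed in Sf9 cells and Ni-purified; incubated with 60 nM cAMP plus 0.008 μCi 3H-cAMP in 50 mM Tris pH 7.8, 8.3 mM MgCl2, 1.7 mM EGTA for 60 min at room temperature. Product quantified by scintillation proximity counting; final DMSO 1%.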

[2] = test system: apomorphine-induced stereotypy in rats; experiment: Apomorphine-induced stereotypy in rats (APO); format: in vivo; settings: Rattus norvegicus, n.d.: found not active at threshold dose 2.5 mg/kg or 10 mg/kg (a)
Method: Apomorphine (1.0 mg/kg, i.v.)-induced stereotypy (compulsive sniffing, licking, chewing) was scored every 5 min over the first hour after injection of apomorphine, following a 1 hour interval pre-treatment with the test compound. The score system was: (3) pronounced, (2) moderate, (1) slight, and (0) absent.

PDE10 = target: T2, PDE10 (Rattus norvegicus, UniProt Q9QYJ6); experiment: PDE10 occupancy ([3H]-MP-10, striatum); format: in vivo; settings: rat, single dose 10 mg/kg
T2 construct: from tissue; host or cells: rat brain sections, striatum (in vivo dosing, ex vivo autoradiography)
T2 sequence (Q9QYJ6 1-794): T1 sequence (Q9QYJ6 1-794)
Method: Dose-response or single dose experiments were performed to measure PDE10 occupancy 1 hour after subcutaneous (s.c.) or oral (p.o.) administration. Male Wistar rats (200 g) were treated by s.c. or p.o. administration of various PDE10 inhibitors. The PDE10 radioligand [^3H]-MP-10 (10 μCi/animal) was injected intravenously (i.v.) 30 minutes before sacrifice. Brains were immediately removed from the skull and rapidly frozen. Twenty μm-thick brain sections were cut using a cryostat-microtome, thaw-mounted on microscope slides and loaded in a β-imager to quantify PDE10 occupancy in the striatum.

PDE4D3 = PDE4D3 (Homo sapiens, UniProt Q08499); experiment: In vitro PDE selectivity assay (SPA), PDE4D3; format: biochemical; settings: hPDE4D3; read-out: PDE 4D3 (expressed as pIC50) (converted)
Method: (§1) Rat recombinant PDE10A (rPDE10A2) was expressed in Sf9 cells using a recombinant rPDE10A baculovirus construct. Cells were harvested after 48 h of infection and the rPDE10A protein was purified by metal chelate chromatography on Ni-sepharose 6FF. Tested compounds were dissolved and diluted in 100% DMSO to a concentration 100 fold of the final concentration in the assay. Compound dilutions (0.4 μl) were added in 384 well plates to 20 μl of incubation buffer (50 mM Tris pH 7.8, 8.3 mM MgCl2, 1.7 mM EGTA). 10 μl of rPDE10A enzyme in incubation buffer was added and the reaction was started by addition of 10 μl substrate to a final concentration of 60 nM cAMP and 0.008 μCi ^3H-cAMP. The reaction was incubated for 60 minutes at room temperature. After incubation, the reaction was stopped with 20 μl of stop solution consisting of 17.8 mg/ml PDE SPA (scintillation proximity assay) beads. After sedimentation of the beads during 30 minutes the radioactivity was measured in a Perkin Elmer Topcount scintillation counter and results were expressed as cpm. For blanc values the enzyme was omitted from the reaction and replaced by incubation buffer. Control values were obtained by addition of a final concentration of 1% DMSO instead of compound. The same assay principle is applied for the measurement of the affinity of the compound for other members of the PDE family with appropriate modifications in incubation buffer, substrate concentration, incubation time and stop solution. An overview of the different protocols is presented in table A. A best fit curve is fitted by a minimum sum of squares method to the plot of % of control value substracted with blanc value versus compound concentration and the half maximal inhibitory concentration (IC50) value is derived from this curve.
(§2) The compounds of the invention are generally selective for PDE10 compared to other PDEs and there are a few that also have affinity for PDE1B1, 4D3 and 5A3.

PDE5A3 = PDE5A3 (Homo sapiens, UniProt O76074); experiment: In vitro PDE selectivity assay (SPA), PDE5A3; format: biochemical; settings: hPDE5A3; read-out: PDE 5A3 (expressed as pIC50) (converted)
Method: as §1, §2

[3] = target: other members of the PDE family (Homo sapiens, UniProt O00408); experiment: In vitro PDE selectivity assay (SPA), other members of the PDE family (protocols in Table A); format: biochemical; settings: hPDE2A; read-out: PDE 2A (expressed as pIC50) (converted)
Method: as §1, §2

[4] = target: other members of the PDE family (Homo sapiens, UniProt O76083); experiment: as above; format: biochemical; settings: hPDE9A; read-out: PDE 9A (expressed as pIC50) (converted)
Method: as §1, §2

[5] = target: other members of the PDE family (Homo sapiens, UniProt Q13946); experiment: as above; format: biochemical; settings: hPDE7A1; read-out: PDE 7A (expressed as pIC50) (converted)
Method: as §1, §2

[6] = target: other members of the PDE family (Homo sapiens, UniProt Q14432); experiment: as above; format: biochemical; settings: hPDE3A; read-out: PDE 3A (expressed as pIC50) (converted)
Method: as §1, §2

[7] = target: other members of the PDE family (Homo sapiens, UniProt Q9HCR9); experiment: as above; format: biochemical; settings: hPDE11A4; read-out: PDE 11A4 (expressed as pIC50) (converted)
Method: as §1, §2

[8] = pIC50 corresponds to the −log IC50 expressed in mol/L, read-out: PDE10A2 pIC50 (converted)
[9] = po, * not soluble, tested orally as a suspension
[10] = oral, read-out: SD po % occupancy at 10 mg/kg

Sequence of other members of the PDE family (Homo sapiens, UniProt Q13946) (Q13946 whole entry): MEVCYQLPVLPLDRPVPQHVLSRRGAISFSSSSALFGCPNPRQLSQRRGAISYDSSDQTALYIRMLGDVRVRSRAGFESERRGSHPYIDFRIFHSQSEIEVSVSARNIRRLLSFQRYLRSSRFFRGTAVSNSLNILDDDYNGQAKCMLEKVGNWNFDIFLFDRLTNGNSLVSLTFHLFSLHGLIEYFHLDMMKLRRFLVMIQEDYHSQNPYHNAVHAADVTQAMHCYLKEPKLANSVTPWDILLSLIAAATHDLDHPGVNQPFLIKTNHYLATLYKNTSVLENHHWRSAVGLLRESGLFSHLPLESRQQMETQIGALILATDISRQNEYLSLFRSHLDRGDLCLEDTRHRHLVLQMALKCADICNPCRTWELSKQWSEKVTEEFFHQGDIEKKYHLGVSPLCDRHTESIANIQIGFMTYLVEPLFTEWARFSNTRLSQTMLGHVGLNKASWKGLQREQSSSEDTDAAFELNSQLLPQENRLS
Sequence of PDE4D3 (Q08499 1-673 isoform Q08499-2): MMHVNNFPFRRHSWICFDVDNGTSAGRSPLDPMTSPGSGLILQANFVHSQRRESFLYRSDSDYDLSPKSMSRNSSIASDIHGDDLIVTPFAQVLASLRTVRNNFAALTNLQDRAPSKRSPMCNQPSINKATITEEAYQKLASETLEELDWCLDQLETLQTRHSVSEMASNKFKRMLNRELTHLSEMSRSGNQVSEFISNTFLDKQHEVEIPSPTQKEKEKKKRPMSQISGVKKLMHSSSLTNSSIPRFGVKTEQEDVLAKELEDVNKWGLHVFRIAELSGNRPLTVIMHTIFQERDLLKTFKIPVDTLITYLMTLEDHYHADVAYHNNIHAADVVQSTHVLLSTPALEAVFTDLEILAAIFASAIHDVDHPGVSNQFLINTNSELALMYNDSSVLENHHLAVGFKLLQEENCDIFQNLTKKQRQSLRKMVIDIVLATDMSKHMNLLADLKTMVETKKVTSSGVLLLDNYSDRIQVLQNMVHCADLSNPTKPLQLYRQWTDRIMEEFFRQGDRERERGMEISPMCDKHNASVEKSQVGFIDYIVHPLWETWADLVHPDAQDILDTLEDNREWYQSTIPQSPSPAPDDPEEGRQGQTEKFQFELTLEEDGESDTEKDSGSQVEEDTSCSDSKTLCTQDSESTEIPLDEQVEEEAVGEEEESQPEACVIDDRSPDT
Sequence of other members of the PDE family (Homo sapiens, UniProt Q14432) (Q14432 whole entry): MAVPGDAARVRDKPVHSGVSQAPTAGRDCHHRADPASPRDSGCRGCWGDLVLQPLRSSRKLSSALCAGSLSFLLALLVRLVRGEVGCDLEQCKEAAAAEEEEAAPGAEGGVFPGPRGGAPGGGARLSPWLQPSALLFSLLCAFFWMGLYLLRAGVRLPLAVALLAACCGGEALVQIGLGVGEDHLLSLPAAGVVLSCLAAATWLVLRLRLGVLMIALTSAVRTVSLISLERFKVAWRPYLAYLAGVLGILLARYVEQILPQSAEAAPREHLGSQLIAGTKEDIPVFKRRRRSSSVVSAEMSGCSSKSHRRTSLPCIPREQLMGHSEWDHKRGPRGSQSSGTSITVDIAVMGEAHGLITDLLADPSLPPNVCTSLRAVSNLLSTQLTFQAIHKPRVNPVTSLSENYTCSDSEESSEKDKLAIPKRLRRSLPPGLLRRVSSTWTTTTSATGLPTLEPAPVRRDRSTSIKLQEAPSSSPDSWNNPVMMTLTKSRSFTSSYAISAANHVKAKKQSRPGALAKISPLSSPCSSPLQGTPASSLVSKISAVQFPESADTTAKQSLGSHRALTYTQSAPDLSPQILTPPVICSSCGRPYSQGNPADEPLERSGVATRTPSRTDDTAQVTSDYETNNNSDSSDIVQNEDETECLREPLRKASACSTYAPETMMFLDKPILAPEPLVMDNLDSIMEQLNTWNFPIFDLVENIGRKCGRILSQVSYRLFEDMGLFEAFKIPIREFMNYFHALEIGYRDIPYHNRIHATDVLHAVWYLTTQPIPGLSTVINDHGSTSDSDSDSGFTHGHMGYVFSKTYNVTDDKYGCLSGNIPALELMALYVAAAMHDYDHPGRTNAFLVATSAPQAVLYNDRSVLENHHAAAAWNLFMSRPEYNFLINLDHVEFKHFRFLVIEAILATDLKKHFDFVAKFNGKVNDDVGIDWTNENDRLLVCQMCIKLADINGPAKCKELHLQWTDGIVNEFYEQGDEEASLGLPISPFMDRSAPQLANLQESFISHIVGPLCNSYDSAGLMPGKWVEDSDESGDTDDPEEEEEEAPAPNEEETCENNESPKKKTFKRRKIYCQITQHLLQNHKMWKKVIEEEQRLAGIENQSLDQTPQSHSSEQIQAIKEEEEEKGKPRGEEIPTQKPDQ
Sequence of other members of the PDE family (Homo sapiens, UniProt O00408) (O00408 whole entry): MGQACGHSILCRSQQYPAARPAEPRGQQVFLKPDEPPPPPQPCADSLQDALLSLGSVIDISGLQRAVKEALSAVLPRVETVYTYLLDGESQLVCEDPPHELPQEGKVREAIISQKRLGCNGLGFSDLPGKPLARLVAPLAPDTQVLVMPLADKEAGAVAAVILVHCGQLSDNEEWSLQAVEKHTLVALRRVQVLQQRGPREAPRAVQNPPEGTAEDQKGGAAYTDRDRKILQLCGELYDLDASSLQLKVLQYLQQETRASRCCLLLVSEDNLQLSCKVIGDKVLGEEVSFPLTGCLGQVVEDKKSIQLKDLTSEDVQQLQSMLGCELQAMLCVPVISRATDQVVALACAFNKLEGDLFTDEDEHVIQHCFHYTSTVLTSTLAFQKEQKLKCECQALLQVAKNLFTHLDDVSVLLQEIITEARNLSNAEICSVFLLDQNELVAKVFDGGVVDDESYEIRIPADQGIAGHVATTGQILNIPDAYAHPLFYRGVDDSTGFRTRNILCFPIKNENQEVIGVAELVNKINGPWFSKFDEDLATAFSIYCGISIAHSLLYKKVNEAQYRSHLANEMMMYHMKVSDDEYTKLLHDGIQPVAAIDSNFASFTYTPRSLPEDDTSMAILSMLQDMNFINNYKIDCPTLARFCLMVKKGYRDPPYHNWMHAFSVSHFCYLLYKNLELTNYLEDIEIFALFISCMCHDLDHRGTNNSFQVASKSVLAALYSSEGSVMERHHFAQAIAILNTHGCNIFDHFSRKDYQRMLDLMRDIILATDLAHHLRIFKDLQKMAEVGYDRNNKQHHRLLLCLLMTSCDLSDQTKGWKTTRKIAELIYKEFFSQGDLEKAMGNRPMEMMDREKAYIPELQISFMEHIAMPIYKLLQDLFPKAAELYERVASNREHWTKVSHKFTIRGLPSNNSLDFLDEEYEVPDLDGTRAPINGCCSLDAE
Sequence of other members of the PDE family (Homo sapiens, UniProt O76083) (O76083 whole entry): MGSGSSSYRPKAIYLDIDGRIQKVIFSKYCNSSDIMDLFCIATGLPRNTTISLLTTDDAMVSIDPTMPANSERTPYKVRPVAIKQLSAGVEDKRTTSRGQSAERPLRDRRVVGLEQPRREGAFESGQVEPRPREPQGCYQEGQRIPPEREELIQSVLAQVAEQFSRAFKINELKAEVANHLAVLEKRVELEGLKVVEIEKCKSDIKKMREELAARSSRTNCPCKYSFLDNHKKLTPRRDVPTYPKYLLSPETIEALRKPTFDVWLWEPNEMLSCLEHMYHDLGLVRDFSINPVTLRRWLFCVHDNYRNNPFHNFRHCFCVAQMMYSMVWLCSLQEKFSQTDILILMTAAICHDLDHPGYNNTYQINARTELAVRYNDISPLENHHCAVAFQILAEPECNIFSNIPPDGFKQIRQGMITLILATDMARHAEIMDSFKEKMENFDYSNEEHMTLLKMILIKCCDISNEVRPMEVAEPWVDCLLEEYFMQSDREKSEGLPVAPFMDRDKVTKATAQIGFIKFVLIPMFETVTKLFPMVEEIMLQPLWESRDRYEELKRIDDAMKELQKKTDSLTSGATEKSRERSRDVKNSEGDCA
Sequence of other members of the PDE family (Homo sapiens, UniProt Q9HCR9) (Q9HCR9 whole entry): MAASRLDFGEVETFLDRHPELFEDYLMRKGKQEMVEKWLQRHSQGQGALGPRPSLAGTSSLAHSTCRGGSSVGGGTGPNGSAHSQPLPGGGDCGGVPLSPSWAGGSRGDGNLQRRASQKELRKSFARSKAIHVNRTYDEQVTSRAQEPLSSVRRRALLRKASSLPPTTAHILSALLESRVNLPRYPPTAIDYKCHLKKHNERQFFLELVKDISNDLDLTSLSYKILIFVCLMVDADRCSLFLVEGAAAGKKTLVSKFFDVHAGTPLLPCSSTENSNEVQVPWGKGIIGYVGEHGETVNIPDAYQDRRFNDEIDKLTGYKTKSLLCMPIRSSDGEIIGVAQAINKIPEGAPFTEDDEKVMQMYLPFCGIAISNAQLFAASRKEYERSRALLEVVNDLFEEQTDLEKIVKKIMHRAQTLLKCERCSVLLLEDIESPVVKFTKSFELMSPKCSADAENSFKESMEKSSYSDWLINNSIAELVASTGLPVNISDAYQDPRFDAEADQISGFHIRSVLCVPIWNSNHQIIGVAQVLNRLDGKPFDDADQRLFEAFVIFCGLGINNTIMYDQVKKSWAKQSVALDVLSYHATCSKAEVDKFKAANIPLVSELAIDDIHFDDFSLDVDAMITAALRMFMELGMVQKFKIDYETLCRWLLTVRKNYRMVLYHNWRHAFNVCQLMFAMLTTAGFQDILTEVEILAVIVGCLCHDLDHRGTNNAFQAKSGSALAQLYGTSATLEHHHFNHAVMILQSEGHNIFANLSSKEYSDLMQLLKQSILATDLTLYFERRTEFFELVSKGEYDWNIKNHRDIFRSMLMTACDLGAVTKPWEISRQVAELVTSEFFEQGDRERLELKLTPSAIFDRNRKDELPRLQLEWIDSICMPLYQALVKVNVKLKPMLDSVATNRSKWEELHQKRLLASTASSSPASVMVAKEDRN

Row | SMILES | IC50 [1, 8] | receptor occupancy at 10 mg/kg (PDE10; [10]) | ED50 [2, 9] | ED50 ([2]; not further tested) | other results
1 | CCc1nc2c(-c3ccncc3)ccnn2c1-c1cnn(CCOC)c1 [compound 132, 2-ethyl-3-[1-(2-methoxyethyl)-1H-pyrazol-4-yl]-8-(4-pyridinyl)-imidazo[1,2-b]pyridazine] | 0.0708 µM |  |  | > 10 mg/kg | receptor occupancy at 10 mg/kg (PDE10; sc, subcutaneous, read-out: SD sc % occupancy at 10 mg/kg): 44%
2 | FC(F)(F)Cn1cc(-c2c(C3CC3)nc3c(N4CCOCC4)ccnn23)cn1 [compound 138, 2-cyclopropyl-8-(4-morpholinyl)-3-[1-(2,2,2-trifluoroethyl)-1H-pyrazol-4-yl]-imidazo[1,2-b]pyridazine] | 0.0398 µM | 11% | > 10 mg/kg |  | 
3 | COCCn1cc(-c2c(OC)nc3c(N4CCOCC4)ccnn23)cn1 [compound 140, 2-methoxy-3-[1-(2-methoxyethyl)-1H-pyrazol-4-yl]-8-(4-morpholinyl)-imidazo[1,2-b]pyridazine] | 0.174 µM | 0% |  | > 10 mg/kg | 

Second part, led by results:

Row | IC50 [1, 8] | receptor occupancy at 10 mg/kg (PDE10; [10]) | SMILES | ED50 [2, 9] | ED50 ([2]; not further tested) | other results
4 | 0.219 µM | 6% | COCCn1cc(-c2c(C)nc3c(N4CCOCC4)cc(C(F)(F)F)nn23)cn1 [compound 130, 3-[1-(2-methoxyethyl)-1H-pyrazol-4-yl]-2-methyl-8-(4-morpholinyl)-6-(trifluoromethyl)-imidazo[1,2-b]pyridazine] | > 10 mg/kg |  | 
5 | 0.0257 µM | 12% | Cc1nc2c(N3CCOCC3)ccnn2c1-c1cnn(CC(F)(F)F)c1 [compound 137, 2-methyl-8-(4-morpholinyl)-3-[1-(2,2,2-trifluoroethyl)-1H-pyrazol-4-yl]-imidazo[1,2-b]pyridazine] |  | > 2.5 mg/kg | 
6 | 0.0525 µM |  | Cc1nc2c(N3CCOCC3)cc(Cl)nn2c1-c1cnn(CC(F)(F)F)c1 [compound 146, 6-chloro-2-methyl-8-(4-morpholinyl)-3-[1-(2,2,2-trifluoroethyl)-1H-pyrazol-4-yl]-imidazo[1,2-b]pyridazine] |  |  | IC50 ([1]; Table 4 in vitro selectivity, read-out: PDE 10A2 (expressed as pIC50) (converted)): 0.0525 µM; IC50 (PDE4D3): > 10 µM; IC50 (PDE5A3): 1.91 µM; IC50 [3]: > 10 µM; IC50 [4]: > 10 µM; IC50 [5]: 8.51 µM; IC50 [6]: > 10 µM; IC50 [7]: > 10 µM
